Experimental data as given in patent publication US5795860A, “Analogs for specific oligosaccharide-protein interactions and uses therefor” (Repligen Corporation, priority 1994, dated 1998).

Experiments:
[1] = test system: "Glyceptor" sequence-effector molecule interactions; test: interference with "Glyceptor" sequence-effector molecule interactions; format: binding
[2] = affinity coelectrophoresis of ELQ-IL-8 with heparin; format: binding; conditions: compared with native IL-8
Source text: Commercial heparin (porcine mucosa, Sigma Biochemical) is radioactively labeled by first incorporating tyramine at the reducing end of the chains and then introducing radioactive iodine using the chloramine T reaction, a procedure well known in the art. The heparin is size fractionated on a Sephadex G-100 column (Pharmacia) and the last 10% of the heparin to elute is selected and utilized for the labeling. The labeled low molecular weight heparin is then bound to varying concentrations of IL-8 under equilibrium conditions using the technique of affinity coelectrophoresis, as described by Lee and Lander, Proc. Nat. Acad. Sci., U.S.A. (1991) 88, 2768-2772. Briefly, a horizontal 1% agarose gel is poured, using low melting point agarose, that contains nine rectangular wells of equal dimensions (about 3×10 mm). The buffer used comprises 125 mM sodium acetate, 50 mM MOPSO, pH 7.0. 0.5% 3-[3-cholamidopropyl) dimethylammonio]-1-propanesulfonate (CHAPS) may be used in the buffer to prevent adventitious binding of protein to vessel walls. The wells in the horizontal gel are subsequently filled with a requisite amount of 1% agarose which contains varying concentrations of IL-8 ranging from about 80 nM up to about 80 μM. The IL-8 may be produced by recombinant means as is well known in the art or may alternatively be produced as a synthetic peptide. […]

[3] = affinity coelectrophoresis of ELQ-IL-8 with heparan sulfate; format: binding; conditions: compared with native IL-8
[4] = heparin-agarose column, NaCl gradient elution; format: binding; conditions: NaCl gradient 0.125M up to 1M; 50 mM Tris
Description: A mutant IL-8 gene is synthesized in which the ELR sequence at positions 4-6 (Seq. ID No. 1) is modified to glu-leu-gln (ELQ). The modified gene is expressed in E. coli by standard techniques well known to those skilled in the art and the protein product is extracted from the lysed cell pellet with 6M guanidine-HCl. The extract is dialyzed against 50 mM Tris, 0.125M NaCl and passed over a heparin-agarose column. […] The mutant chemokine is eluted from the column at about 0.6-0.7M salt.

[5] = test system: "Glyceptor" sequences on post-capillary endothelium of human dermal tissue; test: binding of 125I-labeled chemokine to human dermal tissue, microscopic autoradiography; conditions: for binding of 125I-labeled chemokine to vasculature / post-capillary endothelium: microscopic autoradiography
Description: A sample of human dermal tissue of about 1 mm^3 is incubated with ^125 I-labeled human IL-8 as described in the art (see, e.g., Rot, A. (1992) Cytokine 4, 347, the disclosure of which is incorporated herein by reference).

neutrophils = test: activation or attraction of neutrophils; format: cell-based
IL-8 = IL-8 mediated inflammation, influx of polymorphonuclear leukocytes into the peritoneal cavity; format: in vivo, mouse; conditions: protamine chloride 100-250 mg i.v. (tail vein), IL-8 i.p.
Description: Typically about 50-100 μl of a sample of 1-2 μg of HAHBS suspended in phosphate buffered saline (PBS) or alternatively an equivalent amount of PBS alone is injected into the tail vein of a mouse at the same time that 1 μg of IL-8 is introduced into the peritoneal cavity. After 3 hours the peritoneal cavity is lavaged and the infiltrated cells are counted.
After 3 hours the peritoneal cavity is lavaged and the infiltrated cells are counted.
Typically a dose of 100-250 mg is suspended in PBS and injected into the tail vein of the mice. IL-8 is again injected into the peritoneal cavity.

Q: With Cc1ccc(C(=O)Nc2ccc(S(=O)(=O)O)c3cc(S(=O)(=O)O)cc(S(=O)(=O)O)c23)cc1NC(=O)c1cccc(NC(=O)Nc2cccc(C(=O)Nc3cc(C(=O)Nc4ccc(S(=O)(=O)O)c5cc(S(=O)(=O)O)cc(S(=O)(=O)O)c45)ccc3C)c2)c1 [suramin] as the molecule, how does the “interference with "Glyceptor" sequence-effector molecule interactions” value [1] read?
A: interferes with "Glyceptor" sequence-effector molecule interactions

Q: With “ELQ-IL-8: mutant IL-8 in which the ELR sequence at positions 4-6 (Seq. ID No. 1) is modified to glu-leu-gln (ELQ)” as the molecule, how does the binding to heparin [2] read?
A: behaves in a similar fashion to native IL-8

Q: What about the “binding to heparan sulfate” value [3] of the same molecule?
A: behaves in a similar fashion to native IL-8

Q: What about the “salt concentration eluting from heparin-agarose column” value [4] of the same molecule?
A: 0.6 to 0.7 M

Q: What about the “binding of labeled native IL-8 to vasculature in presence of ELQ-IL-8” value ([5]; 10 fold excess over radiolabeled native IL-8, ex vivo) of the same molecule?
A: substantially reduced

Q: What about the “binding of 125I-labeled chemokine to vasculature / post-capillary endothelium” value [5] of the same molecule?
A: Binding occurs in the same pattern as observed with native IL-8

Q: And the “activation or attraction of neutrophils” value (neutrophils)?
A: not able to activate or attract neutrophils

Q: Which “binding of 125I-labeled chemokine to vasculature / post-capillary endothelium” value [5] does the source give for IL-8: 125I-labeled human IL-8 here?
A: binds preferentially to certain regions of the vasculature

Q: With protamine chloride as the molecule, how does the toxicity (toxicity of protamine) read?
A: generally toxic agent

Q: And the “inhibition of neutrophil influx” value (IL-8)?
A: significant inhibition of neutrophil influx
